Results as given in patent US12502416B1, “PAM3CSK4 injection for the prevention and management of MASLD” (DASMAN DIABETES INSTITUTE, priority 2025, dated 2025).
Ends that are not written are not given here. * marks the point of attachment. X1 = 2,3‑bis(palmitoyloxy)‑(2RS)‑propyl, CCCCCCCCCCCCCCCC(=O)OCC(C*)OC(=O)CCCCCCCCCCCCCCC; Palmitoyl = CCCCCCCCCCCCCCCC(=O)*

What was measured:
Assay type in all cases: in vivo
PPAR-γ = assay: Liver PPAR-γ expression by qRT-PCR in high-fat diet mice; settings: HFD mice; 10 μg/kg IP every other day for two weeks; liver total RNA, qRT-PCR (FIG. 3A)
Procedure: (§1) Referring to FIGS. 3A-3B, 8-10 weeks-old male mice (n−20) were fed a high-fat diet (60% fat). […] These mice were randomly divided into 2 groups. Mice in Group 1 (n=10) received injections of 0.9% normal saline (vehicle) every other day for a duration of two weeks. Mice in Group 2 (n=10) received injections of Pam3CSK4 (SEQ ID NO: 1) (drug:10 μg/kg; IP) every other day for a duration of two weeks. Throughout the treatment period, mice were kept on a high-fat diet. Total RNA was extracted from livers and expression of PPAR-γ (FIG. 3A) and CD36 (FIG. 3B) was determined by qRT-PCR. Data presents as mean±SD.

[1] = tested on: C57BL/6 mice on high-fat diet (impaired glucose homeostasis); assay: Fasting blood glucose in high-fat diet mice; settings: HFD mice; 10 μg/kg IP every other day for two weeks; compared to vehicle (FIG. 2)
Procedure: (§2) In the experiment, 8-10 weeks-old male mice (n−20) were fed a high-fat diet (60% fat). […] These mice were randomly divided into 2 groups. Mice in Group 1(n−10) received injections of 0.9% normal saline (vehicle) every other day for a duration of two weeks. Mice in Group 2 (n−10) received injections of Pam3CSK4 (SEQ ID NO: 1) (drug:10 μg/kg; IP) every other day for a duration of two weeks. Throughout the treatment period, mice were kept on a high-fat diet. A) Liver sections of the mice were stained with H&E. Referring to FIG. 2, fasting blood glucose was reduced in the mice treated with Pam3CSK4 (SEQ ID NO: 1) compared to mice treated with a vehicle. […] By non-limiting example, a vehicle may be saline, a sugar water solution, or other similar substances that may be injected without affecting the subject directly. Data is presented as mean±SD.

CD36 = assay: Liver CD36 expression by qRT-PCR in high-fat diet mice; settings: HFD mice; 10 μg/kg IP every other day for two weeks; liver total RNA, qRT-PCR (FIG. 3B)
Procedure: as §1

[2] = tested on: C57BL/6 mice on high-fat diet (liver steatosis); assay: Liver section histology (H&E) in high-fat diet mice with liver steatosis; settings: obese HFD mice with steatosis, 10 μg/kg IP every other day for two weeks
Procedure: as §2

Pam3CysSerLys4 (Palmitoyl-C(X1)SKKKK) [Pam3CSK4, a synthetic triacylated lipopeptide (LP) and a TLR2/TLR1 ligand]
PPAR-γ expression in the liver (PPAR-γ): suppressed
fasting blood glucose (FBG) [1]: reduced
CD36 expression in the liver (CD36): suppressed
normal liver without any fat in treated mice [2]: 100%
hepatic fat accumulation ([2]; vs vehicle): effectively reduces hepatic fat accumulation
